{"source": "patent US8053577B2", "about": "“Derivatives of 5,9-methanocycloocta[b]pyridin-2-(1H)-one, their preparation and use as analgesics” (priority 2006, dated 2011)", "key": {"[1]": {"experiment": "Acute toxicity (LD50) in mice", "details": "mouse, in vivo, oral administration", "text": "In view of the above-described problems, this invention relates to a series of analgesic 5,9-methanocycloocta[b]pyridin-2(H)-one derivatives.\nThe compounds of Formula I release huperzine A after p.o. administration. The amount of huperzine A released in artificial gastric fluid at various time intervals after administration of (5R,9R,11E)-5-(3-phenylprop-2-en-1-ylideneamino)-11-ethylidene-5,6,9,10-tetrahydro-7-methyl-5,9-methanocycloocta[b]pyridin-2(1H)-one is listed in Table 2. […] Accordingly, (5R,9R,11E)-5-(3-phenylprop-2-en-1-ylideneamino)-11-ethylidene-5,6,9,10-tetrahydro-7-methyl-5,9-methanocycloocta[b]pyridin-2(1H)-one is a pro-drug of huperzine A, and releases huperzine A in a sustained fashion. Sustained release of huperzine A can well explain lower toxicity of compounds of Formula I compared with Huperzine A (see Table 1)."}, "mice": {"test_system": "mice", "experiment": "Analgesic effect of intragastric administration on mice measured with hot-plate test", "format": "in vivo, ICR mice", "details": "x ± s, n = 10; for pain-threshold after administration / pain-threshold before administration: time course; for pain-threshold before administration / pain threshold before administration: baseline", "procedure": "The analgesic effect with a single dose of the compounds represented by Formula I is preliminarily screened at single time point through hot-plate test, with fortanodyn and aspirin as positive controls. All of the compounds are administered intragastrically.\nOn the basis of preliminary screening results, several representative compounds were selected to test their analgesic duration, and a part of the results is listed in Table 4. The results illustrate that the analgesic duration of most compounds is longer than 2 hours after a single oral administration, and that some of the compounds have analgesic duration lasting longer than 4 hours.\nFurthermore, the dose-effect relationship on an analgesic model of two compounds was tested and the results are shown in Table 5.\nAnalgesic effect of intragastric administration on mice measured with hot-plate test\nFemale ICR mice, weight 20+2 g, were purchased from Department of Laboratory Animal Science, Beijing University, animal license number: SCXK 2002-0001.\nA) Samples: samples were prepared as mixtures with 0.9% NaCl solution for intragastric administration to mice.\nB) Fortanodyn: 30 mg/pill (TianJin LiSheng Pharmaceutical Co. Ltd, lot number: 0201001), 1.5 mg/mL solution was prepared with 0.9% NaCl solution for intragastric administration to mice.\n1) Hot-plate test on mice was employed. A thermostatic water bath was adjusted at 55±0.5° C., the bottom of metal plates contacted water surface and used as stimuli after heating. The time span(s) from the point when the mouse was placed onto the hot-plate to the time when the mouse started to lick its metapedes was determined as its pain threshold, which was recorded by stopwatch. Female mice with a weight of 20±2 g were used. The pain threshold of every mouse was measured twice before administration, and the qualified mice are the ones whose average pain threshold was less than 30 seconds.\nThe qualified mice were randomly grouped with 10 mice in each group. The pain threshold before administration was determined as the basic pain threshold. To the medication administration team, drugs of different dose were given through intragastric administration, whereas to the control group, 0.9% NaCl solution was given. The administration volume was 0.2 mL for every 10 g body weight. The pain threshold of each group was measured at 1 hour after administration.\nAfter administration the pain threshold of each group at different time was measured. The experimental data was statistically treated with t-test using SPSS10 statistics software."}, "[2]": {"details": "0.84 mg/kg intragastric, 30 min"}, "[3]": {"details": "0.84 mg/kg intragastric, 60 min"}, "[4]": {"details": "0.84 mg/kg intragastric, 120 min"}, "[5]": {"details": "0.84 mg/kg intragastric, 180 min"}, "[6]": {"details": "group dosed 0.84 mg/kg intragastric"}, "[7]": {"details": "Table 3 screening, 0.6 mg/kg intragastric, 1 hour"}, "[8]": {"details": "Table 3 screening, group dosed 0.6 mg/kg intragastric"}}, "data": [{"smiles": "C/C=C1\\[C@H]2C=C(C)C[C@]1(N)c1ccc(=O)[nH]c1C2", "note": "[Example 1, (5R,9R,11E)-5-amino-11-ethylidene-5,6,9,10-tetrahydro-7-methyl-5,9-methanocycloocta[b]pyridin-2(1H)-one, reference compound]", "values": [{"measurement": "LD50", "setting": "[1]", "result": 3.8, "unit": "mg/kg"}]}, {"smiles": "C/C=C1\\[C@H]2C=C(C)C[C@]1(/N=C/C=C/c1ccccc1)c1ccc(=O)[nH]c1C2", "note": "[Example 2, (5R,9R,11E)-5-(3-phenylprop-2-en-1-ylideneamino)-11-ethylidene-5,6,9,10-tetrahydro-7-methyl-5,9-methanocycloocta[b]pyridin-2(1H)-one]", "values": [{"measurement": "LD50", "setting": "[1]", "result": 26.5, "unit": "mg/kg"}, {"measurement": "pain-threshold after administration", "setting": "mice; 0.73 mg/kg intragastric, 30 min", "result": "34.0 ± 11.42", "unit": "s"}, {"measurement": "pain-threshold after administration", "setting": "mice; 0.73 mg/kg intragastric, 60 min", "result": "36.5 ± 10.91", "unit": "s"}, {"measurement": "pain-threshold after administration", "setting": "mice; 0.73 mg/kg intragastric, 120 min", "result": "29.0 ± 7.83", "unit": "s"}, {"measurement": "pain-threshold after administration", "setting": "mice; 0.73 mg/kg intragastric, 180 min", "result": "24.0 ± 5.44", "unit": "s"}, {"measurement": "pain-threshold after administration", "setting": "mice; 0.73 mg/kg intragastric, 240 min", "result": "18.3 ± 5.31", "unit": "s"}]}, {"smiles": "C/C=C1\\[C@H]2C=C(C)C[C@]1(/N=C/C=C/c1ccc(Cl)cc1)c1ccc(=O)[nH]c1C2", "note": "[Example 14, (5R,9R,11E)-5-(3-(4-chlorophenyl)prop-2-en-1-ylideneamino)-11-ethylidene-5,6,9,10-tetrahydro-7-methyl-5,9-methanocycloocta[b]pyridin-2(1H)-one]", "values": [{"measurement": "LD50", "setting": "[1]", "result": 35.6, "unit": "mg/kg"}, {"measurement": "pain-threshold after administration", "setting": "mice; 0.81 mg/kg intragastric, 30 min", "result": "47.9 ± 12.95", "unit": "s"}, {"measurement": "pain-threshold after administration", "setting": "mice; 0.81 mg/kg intragastric, 60 min", "result": "45.9 ± 15.42", "unit": "s"}, {"measurement": "pain-threshold after administration", "setting": "mice; 0.81 mg/kg intragastric, 120 min", "result": "31.0 ± 12.04", "unit": "s"}, {"measurement": "pain-threshold after administration", "setting": "mice; 0.81 mg/kg intragastric, 180 min", "result": "25.1 ± 8.10", "unit": "s"}, {"measurement": "pain-threshold after administration", "setting": "mice; 0.81 mg/kg intragastric, 240 min", "result": "26.2 ± 9.69", "unit": "s"}, {"measurement": "pain-threshold before administration", "setting": "mice; group dosed 0.81 mg/kg intragastric", "result": "12.6 ± 4.25", "unit": "s"}]}, {"smiles": "C/C=C1\\[C@H]2C=C(C)C[C@]1(/N=C/C=C/c1ccco1)c1ccc(=O)[nH]c1C2", "note": "[Example 21, (5R,9R,11E)-5-(3-(furan-2-yl)prop-2-en-1-ylideneamino)-11-ethylidene-5,6,9,10-tetrahydro-7-methyl-5,9-methanocycloocta[b]pyridin-2(1H)-one]", "values": [{"measurement": "pain threshold after administration", "setting": "mice; dose-effect, 0.42 mg/kg intragastric, 30 min", "result": "16.3 ± 4.47", "unit": "s"}, {"measurement": "pain threshold after administration", "setting": "mice; dose-effect, 0.42 mg/kg intragastric, 60 min", "result": "16.4 ± 4.03", "unit": "s"}, {"measurement": "pain threshold after administration", "setting": "mice; dose-effect, 0.42 mg/kg intragastric, 120 min", "result": "13.2 ± 2.86", "unit": "s"}, {"measurement": "pain threshold after administration", "setting": "mice; dose-effect, 0.42 mg/kg intragastric, 180 min", "result": "14.1 ± 1.66", "unit": "s"}, {"measurement": "pain threshold before administration", "setting": "mice; dose-effect, group dosed 0.42 mg/kg intragastric", "result": "12.5 ± 2.79", "unit": "s"}, {"measurement": "pain-threshold after administration", "setting": "mice; 0.71 mg/kg intragastric, 30 min", "result": "17.2 ± 6.37", "unit": "s"}, {"measurement": "pain-threshold after administration", "setting": "mice; 0.71 mg/kg intragastric, 60 min", "result": "21.0 ± 8.77", "unit": "s"}, {"measurement": "pain-threshold after administration", "setting": "mice; 0.71 mg/kg intragastric, 120 min", "result": "16.9 ± 8.32", "unit": "s"}, {"measurement": "pain-threshold after administration", "setting": "mice; 0.71 mg/kg intragastric, 180 min", "result": "12.9 ± 3.87", "unit": "s"}, {"measurement": "pain-threshold after administration", "setting": "mice; [2]", "result": "23.3 ± 7.45", "unit": "s"}, {"measurement": "pain-threshold after administration", "setting": "mice; [3]", "result": "28.1 ± 10.15", "unit": "s"}, {"measurement": "pain-threshold after administration", "setting": "mice; [4]", "result": "14.9 ± 5.02", "unit": "s"}, {"measurement": "pain-threshold after administration", "setting": "mice; [5]", "result": "13.7 ± 2.98", "unit": "s"}, {"measurement": "pain-threshold before administration", "setting": "mice; group dosed 0.71 mg/kg intragastric", "result": "11.9 ± 3.90", "unit": "s"}, {"measurement": "pain-threshold before administration", "setting": "mice; [6]", "result": "12.3 ± 3.86", "unit": "s"}]}, {"smiles": "C/C=C1\\C2C=C(C)CC1(/N=C/C=C/c1ccc3ccccc3c1)c1ccc(=O)[nH]c1C2", "note": "[Example 22, (5R,9R,11E)-5-(3-(naphthalen-2-yl)prop-2-en-1-ylideneamino)-11-ethylidene-5,6,9,10-1,7-dimethyl-5,9-methanocycloocta[b]pyridin-2(1H)-one]", "values": [{"measurement": "pain threshold after administration", "setting": "mice; [7]", "result": "23.6 ± 4.27", "unit": "s"}, {"measurement": "pain threshold before administration", "setting": "mice; [8]", "result": "12.4 ± 4.13", "unit": "s"}]}, {"smiles": "C/C=C1\\C2C=C(C)CC1(/N=C/C=C/c1cccc3ccccc13)c1ccc(=O)[nH]c1C2", "note": "[Example 23, (5R,9R,11E)-5-(3-(naphthalen-1-yl)prop-2-en-1-ylideneamino)-11-ethylidene-5,6,9,10-1,7-dimethyl-5,9-methanocycloocta[b]pyridin-2(1H)-one]", "values": [{"measurement": "LD50", "setting": "[1]", "result": 43.2, "unit": "mg/kg"}, {"measurement": "pain-threshold after administration", "setting": "mice; [2]", "result": "23.3 ± 7.45", "unit": "s"}, {"measurement": "pain-threshold after administration", "setting": "mice; [3]", "result": "28.1 ± 10.15", "unit": "s"}, {"measurement": "pain-threshold after administration", "setting": "mice; [4]", "result": "14.9 ± 5.02", "unit": "s"}, {"measurement": "pain-threshold after administration", "setting": "mice; [5]", "result": "13.7 ± 2.98", "unit": "s"}, {"measurement": "pain-threshold before administration", "setting": "mice; [6]", "result": "12.3 ± 3.86", "unit": "s"}]}, {"smiles": "C/C=C1\\C2C=C(C)CC1(/N=C/C=C/c1c3ccccc3cc3ccccc13)c1ccc(=O)[nH]c1C2", "note": "[Example 26, (5R,9R,11E)-5-(3-(anthracen-9-yl)prop-2-en-1-ylideneamino)-11-ethylidene-5,6,9,10-1,7-dimethyl-5,9-methanocycloocta[b]pyridin-2(1H)-one]", "values": [{"measurement": "pain threshold after administration", "setting": "mice; [7]", "result": "20.8 ± 3.60", "unit": "s"}]}, {"smiles": "C/C=C1\\C2C=C(C)CC1(/N=C\\c1ccc(/C=C/C=N/C34CC(C)=CC(Cc5[nH]c(=O)ccc53)/C4=C\\C)cc1)c1ccc(=O)[nH]c1C2", "note": "(stereo not drawn) [Example 27]", "values": [{"measurement": "pain threshold after administration", "setting": "mice; [7]", "result": "21.2 ± 5.53", "unit": "s"}, {"measurement": "pain threshold before administration", "setting": "mice; [8]", "result": "12.4 ± 3.14", "unit": "s"}]}, {"smiles": "C/C=C1\\C2C=C(C)CC1(/N=C\\C=C\\c1ccc(/C=C/C=N/C34CC(C)=CC(Cc5[nH]c(=O)ccc53)/C4=C\\C)cc1)c1ccc(=O)[nH]c1C2", "note": "[Example 28]", "values": [{"measurement": "pain threshold after administration", "setting": "mice; [7]", "result": "23.4 ± 3.88", "unit": "s"}, {"measurement": "pain threshold before administration", "setting": "mice; [8]", "result": "12.6 ± 2.73", "unit": "s"}]}]}
